Assays:
HeLa = assay: Cytotoxicity against human HeLa cells by MTT assay; type: functional, cell-based
AGS = assay: Cytotoxicity against human AGS cells by MTT assay; type: functional, cell-based
[1] = Inhibition of TNF-alpha-induced NF-kappaB activation in human HeLa cells; type: cell-based
[2] = molecular target: Hypoxia inducible factors; HIF-1-alpha, HIF-2-alpha (Homo sapiens, UniProt Q16665+Q99814); assay: Inhibition of hypoxia-induced HIF1 activation in human AGS cells by reporter gene assay; type: cell-based

C=C[C@@](C)(/C=C/c1ccc(OCC)cc1)CCC=C(C)C
IC50 (HeLa): > 50 µM | IC50 (AGS): > 50 µM | IC50 [1]: 12.2 µM | IC50 [2]: 26.3 µM

C=C[C@@](C)(/C=C/c1ccc(O)cc1)CCC1OC1(C)C (some centres not stated)
IC50 (HeLa): > 50 µM | IC50 (AGS): > 50 µM | IC50 [1]: > 50 µM | IC50 [2]: > 50 µM

C=C[C@@](C)(/C=C/c1ccc(OC)cc1)CCC=C(C)C
IC50 (HeLa): > 50 µM | IC50 (AGS): 55.8 µM | IC50 [1]: 5.7 µM | IC50 [2]: 8.7 µM

C=C[C@@](C)(/C=C/c1ccc(OC(C)(C)[C@@H](O)CC[C@@](C)(C=C)/C=C/c2ccc(O)cc2)cc1)CCC=C(C)C
IC50 (HeLa): > 50 µM | IC50 (AGS): > 50 µM | IC50 [1]: 12.2 µM | IC50 [2]: > 50 µM

C=C[C@@](C)(/C=C/c1ccc(O)cc1)CCC=C(C)C [BAKUCHIOL]
IC50 (HeLa): 11 µM | IC50 (AGS): 15.3 µM | IC50 [1]: 6.9 µM | IC50 [2]: 6.1 µM

CO[C@H]1/C=C\C=C(/C)C(=O)NC2=CC(=O)C(NCCN(C)C)=C(C[C@@H](C)C[C@H](OC)[C@H](O)[C@@H](C)/C=C(\C)[C@@H]1OC(N)=O)C2=O [ALVESPIMYCIN]
IC50 (HeLa): 2.06 µM | IC50 (AGS): 16 µM | IC50 [1]: 0.15 µM | IC50 [2]: 0.0036 µM

C=C[C@@](C)(/C=C/c1ccc(OC(C)=O)cc1)CCC=C(C)C [ACETYLBAKUCHIOL]
IC50 (HeLa): 18.1 µM | IC50 (AGS): 26.8 µM | IC50 [1]: 5.7 µM | IC50 [2]: 5.7 µM

C=C[C@@](C)(/C=C/c1ccc(O)cc1)CCC(O)C(C)(C)O (some centres not stated)
IC50 (HeLa): > 50 µM | IC50 (AGS): > 50 µM | IC50 [1]: > 50 µM | IC50 [2]: > 50 µM
